The subject of test [1] is B16-F10 mouse melanocytes. Briefly: Melanin production (intracellular and extracellular) in B16-F10 mouse melanocytes. The conditions noted are these: B16F10 cells, 72 hours; A. linearis at 500 μg/ml (highest concentration tested). Format: cell-based. As to the method:
Cultured B16F10 mouse melanocytes (passage number 6) were trypsinized (0.25% trypsin and 0.1% EDTA at 37° C. for 5-10 min). Cells (2×10^4 cells/well in 1.9 ml of MEM) were inoculated into 24-well plates using a pipette (FALCON 353046, Becton Dickinson Labware, NJ, U.S.A.), and incubated for 24 hours at 37° C. in the CO2 incubator. After 24-hour incubation, 100 μl of each sample solution was added to each well in duplicate, and the 24-well plate was incubated for 72 hours at 37° C. in the CO2 incubator. […] A 0.5% DMSO concentration was used as a negative control. After incubation, the cultured medium was removed, and assayed for extracellular melanin. The cultured medium was centrifuged (900 g, 20 min at 4° C.) to give a supernatant. One millilitre of a mixture of 0.4 M HEPES buffer (pH 6.8) and EtOH (9:1, v/v) was added to 1 ml of the supernatant was separated. The OD at 475 nm of the resulting solution was measured, and the amount of extracellular melanin was determined. The remaining melanocytes were digested by the addition of […] of CMF-D-PBS and trypsinized (0.25% trypsin and 0.1% EDTA at 37° C. for 5 to 10 min), and then incubated for 16 hours at room temperature. Spectrophotometric analysis of the amount of intracellular melanin was then performed at 475 nm.

The test system of test [2] is Primary human melanocytes and primary human keratinocytes. Briefly: Melanin transfer in melanocyte/keratinocyte co-culture, immunofluorescence. It counts as cell-based. The conditions noted are these: NHM/NHK co-culture, 24 hours. The procedure: Primary human melanocytes and primary human keratinocytes were cultured in normal Dulbecco's Modified Eagle's Medium (DMEM) containing melanocyte and keratinocyte growth factors respectively. Melanocytes (2.5×10^3 cells/well) were seeded on gelatine treated round coverslips in 24 well plates and were incubated at 37° C. for 72 hours. After the 72 hours the melanocyte medium was removed and medium (with a higher Ca concentration and keratinocyte growth factors) containing the keratinocytes (25×10^3 cells/well) was added to each well. The co-culture was incubated overnight to ensure that the keratinocytes attached. […] After 24 hours the treated cells and untreated cells were analysed with immunofluorescence ([…], et al., 2008). The 24-hour co-cultured cells were washed with PBS and fixed with MeOH (added at a temperature of -20° C.) and incubated for 4 minutes at -20° C. The fixed cells were washed with PBS to remove all the MeOH and incubated for 1 hour at room temperature with goat serum (0.5% in PBS) to remove effects of background noise. […] The washed coverslips were transferred to microscope slides containing mounting media and stored covered at 4° C., until analysed using the fluorescent microscope. The statistical significance in the melanin transfer results obtained for the different treatments, was determined with a student's T-test. […]

Where no end group is shown, it is not given here.

For `Cn1c(=O)c2[nH]cnc2n(C)c1=O` [theophylline], in test [1], the additional melanin extracellularly is 19 µg/mL, the additional melanin intracellularly turned out to be 21 µg/mL and the “additional melanin produced than in the untreated cells (total)” value was determined as 40 µg/mL.

In the case of “alpha melanocyte stimulating hormone (SYSMEHFRWGKPV; ends and bridges not checked; UniProt P01189 138-150, looked up) [α-MSH, positive control for melanin transfer]”, the “melanocyte dendricity and melanosomes in the dendrite tips” value in test [2] is “increase in the fluorescence in the tip of the dendrites”. Also, the “melanosomes around the keratinocyte nuclei (positive keratinocytes)” value in test [2] (versus untreated cells) is listed as “higher presence of melanosomes around the keratinocyte nuclei”.
